Experimental findings from patent US6979675B2, “Treatment of cancer with 2-deoxyglucose” (Threshold Pharmaceuticals, Inc., priority 2003, dated 2005) are described below.

Molecules are shown by their SMILES.

In assay [1] the test system is MV522 cells. The assay can be described thus: Sulforhodamine B (SRB) growth inhibition assay. In kind it is cell-based. The settings on record: Homo sapiens, 72 hours treatment. The method, then:
(§1) The human lung tumor cell lines were MV522 and NCI-H23, both of which were derived from tumors displaying histopathology of adenocarcinoma, one of the at least three types of NSCLC. The NCI-H23 tumor cell line is available from the ATCC (Rockville, Md.), and the MV522 cell line was obtained by Dr. M. J. Kelner of the University of California. The cells were cultured in RPMI medium (Nova Tech, Grand Island, N.Y.) at 37° C. in a humidified atmosphere containing 5% CO2. For passaging, cells grown in 75 cm^2 flasks (60–70% confluency) were washed with PBS and dislodged from the flasks with trypsin (Gibco BRL) before being passaged. Cells used for the experiments described below were centrifuged and resuspended in cell culture medium at a concentration of 10^5 cells/mL. A 100 microliter aliquot (ten thousand cells) was plated into each well of a 96-well microtiter plate.
(§2) Docetaxel (Taxotere™, Aventis Pharmaceuticals, Inc.) solubilized in 100% DMSO and diluted 1000×to the desired concentration (0.1% DMSO final concentration), was used as a positive control. […] Exponentially growing cells in 100 microliters of cell culture medium were plated on Day 0 in 96-well microtiter plates at a concentration of 10^4 cells/well. On Day 1, drugs were added to each well of the microtiter plate with the designated concentration in 100 microliter aliquots of cell culture medium and incubated at 37° C. in a humidified incubator (5% CO2/95% HEPA filtered air). After three days of treatment, adherent cells were fixed by adding 50 microliters of cold 50% trichloracetic acid to each well and incubating for one hour at 4° C. The supernatant was discarded, and plates were washed twice with de-ionized water and air-dried. One hundred microliters of SRB solution were added to each well of the plate and incubated ten minutes at room temperature. Unbound SRB stain was removed by washing twice with 1% acetic acid. The bound SRB stain was solubilized with 10 mM Tris buffer, and the optical densities read at a single wavelength of 515 nm.
(§3) IC50 values (50% effective dose) were calculated from two different experiments, each of which involved 6 replicates for each dose tested. […]

In assay [2] the test system is NCI-H23 cells. The assay is described as follows: Sulforhodamine B (SRB) growth inhibition assay. In kind it is cell-based. The settings on record: Homo sapiens, 72 hours treatment. How it is done:
as §1, §2, §3

With `O=CC[C@@H](O)[C@H](O)[C@H](O)CO` [2-DG, 2-deoxy-D-glucose], the IC50 in assay [1] came out at 3740 ± 740 µM; in assay [2], 1860 ± 532 µM.

As usually defined, the IC50 is the concentration at which inhibition is half-maximal. A low value points to higher potency.
